≈ marks a conversion by molar mass, not a printed value.
Experiments:
PBP2 [1] = biological target: T1, PBP2 (Acinetobacter baumannii, UniProt D0C8Z9); parameters: method as in earlier work; conditions: value in parentheses; A. baumannii ATCC 19606; cited from earlier work
T1 construct: Five microliters of total bacterial membrane preparation was mixed with 5 μL of a test compound; endogenous in cells
T1 sequence (D0C8Z9 1-672): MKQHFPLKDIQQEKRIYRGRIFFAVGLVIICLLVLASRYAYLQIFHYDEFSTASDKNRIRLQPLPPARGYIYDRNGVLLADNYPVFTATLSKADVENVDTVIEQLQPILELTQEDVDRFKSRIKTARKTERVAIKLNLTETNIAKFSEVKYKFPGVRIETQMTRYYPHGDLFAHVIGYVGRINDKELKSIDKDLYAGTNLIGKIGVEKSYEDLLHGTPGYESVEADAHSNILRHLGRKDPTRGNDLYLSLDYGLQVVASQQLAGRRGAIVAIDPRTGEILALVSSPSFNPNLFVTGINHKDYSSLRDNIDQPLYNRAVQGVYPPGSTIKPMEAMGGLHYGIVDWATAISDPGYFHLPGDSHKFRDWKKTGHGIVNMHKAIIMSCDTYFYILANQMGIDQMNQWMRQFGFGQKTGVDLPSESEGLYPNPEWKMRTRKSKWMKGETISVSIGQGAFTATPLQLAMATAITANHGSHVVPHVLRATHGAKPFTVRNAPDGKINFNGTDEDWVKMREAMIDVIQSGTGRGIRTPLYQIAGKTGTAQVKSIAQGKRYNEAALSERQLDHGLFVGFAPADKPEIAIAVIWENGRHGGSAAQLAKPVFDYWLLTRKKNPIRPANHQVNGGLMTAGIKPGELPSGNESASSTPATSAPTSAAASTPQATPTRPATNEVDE

PBP1b = biological target: T2, PBP1b (Escherichia coli, UniProt P02919); parameters: method as in PMID 18250190; conditions: read-out: IC50, PBP1b; value in parentheses; E. coli MC1400; cited from earlier work
T2 construct: Five microliters of total bacterial membrane preparation was mixed with 5 μL of a test compound; endogenous in cells; host or cells: Escherichia coli ECM5497 (MG1655), total membrane preparation
T2 sequence (P02919 whole entry): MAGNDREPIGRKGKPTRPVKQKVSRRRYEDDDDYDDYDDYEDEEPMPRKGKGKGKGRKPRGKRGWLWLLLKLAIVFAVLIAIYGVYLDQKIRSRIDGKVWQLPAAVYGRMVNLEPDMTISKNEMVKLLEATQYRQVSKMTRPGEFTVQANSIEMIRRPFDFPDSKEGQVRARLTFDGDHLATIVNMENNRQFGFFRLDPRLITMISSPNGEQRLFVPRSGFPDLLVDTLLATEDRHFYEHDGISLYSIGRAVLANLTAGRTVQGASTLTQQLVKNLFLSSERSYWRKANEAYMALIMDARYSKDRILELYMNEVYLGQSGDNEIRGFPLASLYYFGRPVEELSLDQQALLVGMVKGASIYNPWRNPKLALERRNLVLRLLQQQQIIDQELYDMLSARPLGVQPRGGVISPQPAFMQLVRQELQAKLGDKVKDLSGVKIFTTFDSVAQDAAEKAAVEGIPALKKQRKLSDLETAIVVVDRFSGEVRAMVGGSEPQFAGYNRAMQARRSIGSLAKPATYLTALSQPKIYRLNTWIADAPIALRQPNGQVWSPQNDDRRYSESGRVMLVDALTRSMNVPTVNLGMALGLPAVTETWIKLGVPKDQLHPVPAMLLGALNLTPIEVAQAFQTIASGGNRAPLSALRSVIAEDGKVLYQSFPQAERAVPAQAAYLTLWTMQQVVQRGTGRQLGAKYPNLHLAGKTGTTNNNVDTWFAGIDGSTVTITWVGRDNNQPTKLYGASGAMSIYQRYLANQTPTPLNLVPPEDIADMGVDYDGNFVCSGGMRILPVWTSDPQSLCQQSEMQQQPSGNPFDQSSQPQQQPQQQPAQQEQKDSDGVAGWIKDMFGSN

PBP2 [2] = biological target: T3, PBP2 (Pseudomonas aeruginosa, UniProt Q9X6V3); parameters: method as in PMID 18250190; conditions: value in parentheses; P. aeruginosa PAO1; cited from earlier work
T3 construct: Five microliters of total bacterial membrane preparation was mixed with 5 μL of a test compound; endogenous in cells
T3 sequence (Q9X6V3 1-646): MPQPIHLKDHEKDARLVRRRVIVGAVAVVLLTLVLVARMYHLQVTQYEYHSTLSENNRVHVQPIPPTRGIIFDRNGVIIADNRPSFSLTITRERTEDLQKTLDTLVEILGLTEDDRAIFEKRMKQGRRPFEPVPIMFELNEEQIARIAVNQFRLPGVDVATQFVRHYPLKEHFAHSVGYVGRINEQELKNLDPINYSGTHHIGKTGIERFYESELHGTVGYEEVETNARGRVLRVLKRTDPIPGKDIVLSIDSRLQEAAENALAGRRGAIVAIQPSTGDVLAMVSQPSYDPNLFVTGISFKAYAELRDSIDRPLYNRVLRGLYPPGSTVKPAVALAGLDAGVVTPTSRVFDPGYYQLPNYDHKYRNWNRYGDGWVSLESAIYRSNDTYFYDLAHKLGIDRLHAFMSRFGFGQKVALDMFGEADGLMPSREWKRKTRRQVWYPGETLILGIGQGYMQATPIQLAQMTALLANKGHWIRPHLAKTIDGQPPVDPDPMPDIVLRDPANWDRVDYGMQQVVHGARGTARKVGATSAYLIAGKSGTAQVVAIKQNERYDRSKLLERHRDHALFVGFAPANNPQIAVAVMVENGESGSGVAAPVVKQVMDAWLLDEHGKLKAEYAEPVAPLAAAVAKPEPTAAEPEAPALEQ

PBP3 [3] = biological target: PBP3 (Klebsiella pneumoniae, UniProt A0A0H3GN85); parameters: method as in PMID 29712652; conditions: read-out: IC50, PBP3; value in parentheses; K. pneumoniae ATCC 43816; cited from earlier work
PBP3 (Klebsiella pneumoniae, UniProt A0A0H3GN85), sequence (A0A0H3GN85 entry or part of it): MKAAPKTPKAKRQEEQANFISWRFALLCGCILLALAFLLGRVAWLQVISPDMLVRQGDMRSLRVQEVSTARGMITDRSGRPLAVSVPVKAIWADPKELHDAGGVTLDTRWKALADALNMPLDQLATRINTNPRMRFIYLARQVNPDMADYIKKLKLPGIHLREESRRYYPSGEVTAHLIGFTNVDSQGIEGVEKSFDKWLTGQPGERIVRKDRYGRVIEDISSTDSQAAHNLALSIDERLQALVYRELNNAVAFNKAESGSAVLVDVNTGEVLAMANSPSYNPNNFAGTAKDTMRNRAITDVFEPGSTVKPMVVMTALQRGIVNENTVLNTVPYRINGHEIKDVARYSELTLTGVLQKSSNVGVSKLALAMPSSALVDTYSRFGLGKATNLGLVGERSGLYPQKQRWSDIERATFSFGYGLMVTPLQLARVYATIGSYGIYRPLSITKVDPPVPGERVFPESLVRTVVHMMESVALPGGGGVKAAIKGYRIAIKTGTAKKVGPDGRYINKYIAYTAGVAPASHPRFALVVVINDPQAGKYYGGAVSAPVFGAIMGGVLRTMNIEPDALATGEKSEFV

[4] = system: strain ECM5497 of E. coli; assay: Minimal bactericidal concentration (MBC), E. coli; format: cell-based; conditions: Escherichia coli
[5] = system: Klebsiella pneumoniae strain KPM1026a; assay: Time-kill study; format: cell-based
[6] = biological target: PBP1a/PBP1b, PBP2, and PBP3; assay: Bocillin FL competition PBP binding assay, summary for two species; conditions: PBP2, and PBP3 from E. coli and K. pneumoniae, read-out: IC50 range
Procedure: (§1) Ten milliliters of overnight bacterial culture was inoculated in 1 L of LB medium and grown to an OD600 of 0.7 to 0.9. The cell pellet was washed once with 50 mL of solution containing 100 mM Na-phosphate at pH 7.0 and 100 mM NaCl and resuspended in 10 mL of the same buffer with one tablet of EDTA-free mini-protease inhibitor and 10 mg of lysozyme. Cell suspensions were incubated for 45 min at 37°C, and then 200 μL of DNase I was added along with MgSO4 (to a final concentration of 10 mM), followed by three cycles of freeze-thawing (10 min and 20 min, respectively). Four cycles of sonication at maximum power were performed next, each cycle lasting for 30 s with 1 min on ice between cycles. The cell suspension was centrifuged at 12,000 × g for 10 min at 4°C. The supernatant was collected and centrifuged at 100,000 × g for 45 min at 4°C. The pellet was washed three times with 10 mL of 100 mM Na-phosphate, pH 7.0, by resuspension and subsequent centrifugation at 100,000 × g for 10 min at 4°C. The pellet was finally resuspended in 1.5 mL of 100 mM Na-phosphate, pH 7.0, and passed several times through a Dounce homogenizer (tight pestle). […]
(§2) Five microliters of total bacterial membrane preparation was mixed with 5 μL of a test compound at a desired concentration in 100 mM Na-phosphate buffer, pH 7.0. […] IC50 values were calculated with Prism software (GraphPad).

PBP3 [7] = biological target: T4, PBP3 (Escherichia coli, UniProt P0AD68); assay: Gel-based Bocillin FL competition PBP binding assay
T4 construct: endogenous in cells; host or cells: Escherichia coli ECM5497 (MG1655), total membrane preparation
T4 sequence (P0AD68 whole entry): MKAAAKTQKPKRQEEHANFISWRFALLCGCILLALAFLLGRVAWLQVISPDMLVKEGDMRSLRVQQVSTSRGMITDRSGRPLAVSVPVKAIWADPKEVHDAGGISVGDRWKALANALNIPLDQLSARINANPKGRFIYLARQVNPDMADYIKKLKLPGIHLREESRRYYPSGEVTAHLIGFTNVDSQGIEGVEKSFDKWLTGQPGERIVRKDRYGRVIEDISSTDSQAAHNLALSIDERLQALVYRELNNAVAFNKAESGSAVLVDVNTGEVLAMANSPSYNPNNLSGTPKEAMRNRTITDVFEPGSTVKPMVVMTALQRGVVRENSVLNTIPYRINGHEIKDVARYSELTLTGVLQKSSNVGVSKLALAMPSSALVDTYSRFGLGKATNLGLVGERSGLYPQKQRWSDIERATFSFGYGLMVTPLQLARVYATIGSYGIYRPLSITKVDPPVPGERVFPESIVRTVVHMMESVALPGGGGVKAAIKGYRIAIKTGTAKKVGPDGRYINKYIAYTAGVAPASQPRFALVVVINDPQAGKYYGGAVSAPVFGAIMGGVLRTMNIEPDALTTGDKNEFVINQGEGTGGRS
Procedure: as §1, §2

Row | SMILES | IC50 (PBP2 [1]) | IC50 (PBP1b) | IC50 (PBP2 [2]) | IC50 (PBP3 [3]) | MBC [4] | kinetics of killing [5] | IC50 [6] | IC50 (PBP3 [7])
1 | C[C@@H](O)[C@H]1C(=O)N2C(C(=O)O)=C(S[C@@H]3CN[C@H](C(=O)N(C)C)C3)[C@H](C)[C@H]12 [Meropenem] | < 0.08 µM | 3.4 µM | 0.05 µM | 0.31 µM | – | – | – | –
2 | O=C(O)c1c(F)ccc2c1OB(O)[C@@H]1C[C@H]21 [Xeruborbactam] | – | – | – | – | 8 µg/mL (≈ 36 µM) | time-dependent, concentration-independent bacterial killing | 40 to 70 µM | 73 ± 10 µM

— article PMC9578396, “Intrinsic Antibacterial Activity of Xeruborbactam In Vitro: Assessing Spectrum and Mode of Action” (Antimicrobial Agents and Chemotherapy, 2022)
